Laboratory results: PMC5118696, “Identification of inhibitors that dually target the new permeability pathway and dihydroorotate dehydrogenase in the blood stage of Plasmodium falciparum” (Scientific Reports, 2016)
Where two headings read alike, the source gives them in different places.

Tests used:
[1] = tested on: Hyp1-NLuc Plasmodium falciparum-infected erythrocytes (new permeability pathway, NPP); experiment: microbe, parasite or virus in culture; settings: Erythrocyte, 0.33 h, read-out: Mean RLU at 28 min (As % of DMSO control)
[2] = tested on: Hyp1-NLuc Plasmodium falciparum-infected erythrocytes (new permeability pathway, NPP); experiment: microbe, parasite or virus in culture; settings: Erythrocyte, 0.33 h, read-out: % of control remaining

SMILES	activity at 2 µM [1] [%]	activity at 2 µM [2] [%]
CCCN(CCC)CCCNC(=O)c1cc2c(-c3ccc(OC)c(OC)c3)nn(C)c2s1 [MMV000561]	107	106
CCCc1cc(O)c2c3c(c(=O)oc2c1)CN(C)CC3 [MMV665841]	107	103
O=C(Nc1ccsc1C(=O)NC1CCCCC1)c1ccc(F)cc1 [MMV665939]	104	115
CC(C)OCc1cc(CN2CCN(c3cccc(Cl)c3)CC2)c(O)c2ncccc12 [MMV000788]	109	107
COc1cc(-c2nc(-c3ccc(Sc4ccccc4)cc3)c(-c3ccccc3)[nH]2)cc(OC)c1O [MMV007273]	97.2	105
COc1ccc(-c2nc(N3CCN(C(=O)C4CCCCC4)CC3)c3c4c(sc3n2)CCCC4)cc1 [MMV396594]	88.9	87.1
COc1ccc(C(=O)NC(c2ccccc2Cl)c2cc(Cl)c3cccnc3c2O)cc1 (centres unmarked) [MMV666022]	104	113
O=C(Nc1ccc(CN2CCOCC2)cc1)c1ccc(-c2cc(Cl)ccc2Cl)o1 [MMV020651]	105	103
CCC(c1ccccc1)c1nn2c(-c3cccs3)nnc2s1 (centres unmarked) [MMV665876]	85.7	40.7
CC(=O)c1sc(NC(=O)Nc2ccc(C)cc2C)nc1C [MMV665894]	99.8	93
CC(C)=CCN1CCC(C(=O)Nc2ccc(-c3nc4ccccc4[nH]3)cc2)CC1 [MMV665946]	106	121
CCn1c2c(c(=N)c3c1CCC3)CCCC2 [MMV000340]	105	104
CN1CCN(c2ccc(Nc3c4ccccc4nc4ccccc34)cc2)CC1 [MMV006172]	97.7	96.4
O=C(NCC(c1ccsc1)N1CCCCCC1)c1ccc(C(F)(F)F)cc1 (centres unmarked) [MMV396672]	101	98.1
CC(C)(C)c1ccc(C(=O)Nc2c3c(nn2-c2cccc(Cl)c2)CSC3)cc1 [MMV666123]	104	108
Cc1cc(NCCN2CCCCC2)c2ccc3ccccc3c2n1 [MMV006203]	103	99.9
Cc1cc(NC(=O)c2ccc(-c3ccccc3)cc2)no1 [MMV018984]	111	110

SMILES	activity at 2 µM [1] [%]	activity at 2 µM [2] [%]
Nc1ccc(-c2nc3cc(Cc4ccc5[nH]c(-c6ccc(N)cc6)nc5c4)ccc3[nH]2)cc1 [MMV665943]	64.3	51.7
CCOc1c(Cl)cc(CNCC(O)c2ccccc2)cc1OC (centres unmarked) [MMV396632]	99.9	101
CC(=O)c1ccc(NC(=O)CSc2nc(-c3ccccc3Cl)ns2)cc1 [MMV666124]	96.8	69.6
COc1cc(-c2nc(-c3ccccc3)c(-c3ccccc3)[nH]2)cc(OC)c1O [MMV020750]	102	109
CN(C)c1ccc(C=Cc2nc(=O)c3ccccc3o2)cc1 [MMV006309]	36.4	19
COCCn1c(C)nc2ccccc2c1=O [MMV665904]	110	112
CCCCCCC(O)(c1ccc(F)cc1)C(CN1CCOCC1)c1ccccc1 (centres unmarked) [MMV000621]	106	117
CCCCc1c(C)nc2c(OC)cccc2c1O [MMV006820]	106	105
CCOC(=O)C1=CN(C)C=C(C(=O)OCC)C1c1cc(Br)c(OCC)c(OC)c1 [MMV006656]	105	102
COc1ccc(-c2nc(NC(=O)CS(=O)(=O)c3ccc(F)cc3)sc2C)cc1 [MMV665915]	101	98.3
Cc1cc(=O)oc2c1ccc1oc(C(=O)c3ccccc3)c(C)c12 [MMV006753]	103	108
O=C(NC1CCN(Cc2ccccc2)CC1)c1cc(-c2cccnc2)nc2ccc(Cl)cc12 [MMV020490]	101	98.9
CSC1=NC(=Nc2c(C)cccc2C)C2(CCC(C(C)(C)C)CC2)N1c1ccc(Cl)cc1 (centres unmarked) [MMV666596]	106	107
CCOC(=O)c1cn(CC)c2cc(N3CCCCC3)c(F)cc2c1=O [MMV665827]	104	100
c1ccc2c(NCCc3c[nH]c4ccccc34)c3ccccc3nc2c1 [MMV006513]	96.2	106
O=C(NCCCN1CCC(N2CCCCC2)CC1)C1=Cc2cc(Br)ccc2OC1 [MMV019995]	106	106
CC(C)CNC(=O)c1c(N)n(CCc2ccccc2F)c2nc3ccccc3nc12 [MMV396744]	108	110
